According to ChEMBL document CHEMBL4765332, “A multi-scale systems pharmacology approach uncovers the anti-cancer molecular mechanism of Ixabepilone” (Eur J Med Chem, 2020):
Active and inactive are the calls of the source.

Legend:
HepG2 = experiment: Induction of autophagy in human HepG2 cells assessed as increase in LC3-II expression at 0.4 uM measured after 12 to 48 hrs by western blot analysis; type: functional, cell-based; conditions: time 12-48 hrs
[1] = target: T1, Apoptosis regulator Bcl-2 (Homo sapiens, UniProt P10415); experiment: Induction of Bcl-2 phosphorylation-mediated protein degradation in human HepG2 cells assessed as decrease in Bcl-2 expression at 0.4 uM measured after 12 to 48 hrs by western blot analysis; type: cell-based; conditions: time 12-48 hrs
BT-549 [2] = experiment: Induction of apoptosis in human BT-549 cells assessed as viable cells incubated for 48 hrs in presence of 20 uM autophagy inhibitor, CQ by AnnexinV-FITC and propidium iodide staining based flow cytometry analysis(reference value: 94.6%); type: functional
MDA-MB-231 [3] = experiment: Induction of autophagy in human MDA-MB-231 cells assessed as increase in LC3-II level at 0.1 uM by Western blot analysis; type: functional, cell-based; conditions: time 12-48 hrs, TDE = time-dependent effect
BT-549 [4] = experiment: Induction of autophagy in human BT-549 cells expressing mRFP-EGFP-LC3B assessed as accumulation of yellow fluorescence signals measured after 12 hrs by fluorescence microscopic analysis; type: functional, cell-based
BT-549 [5] = experiment: Induction of apoptosis in human BT-549 cells assessed as late apoptotic cells incubated for 48 hrs in presence of 20 uM autophagy inhibitor, CQ by AnnexinV-FITC and propidium iodide staining based flow cytometry analysis(reference value: 2.64%); type: functional
U-251 = experiment: Cytotoxicity against human U251 cells at 0.1 to 1.6 uM measured after 48 hrs in presence of 20 uM autophagy inhibitor, chloroquine by CCK8 assay; type: functional, cell-based; conditions: dose 0.1-1.6 µM
BT-549 [6] = experiment: Induction of autophagy in human BT-549 cells assessed increase in LC3-II level at 0.1 to 0.2 uM preincubated with 20 uM autophagosome-lysosome fusion inhibitor, chloroquine for 1 hr followed by incubation with compound for 48 hrs by western blot analysis; type: functional, cell-based; conditions: dose 0.1-0.2 µM
[7] = target: T1, Apoptosis regulator Bcl-2; experiment: Induction of Bcl-2 phosphorylation-mediated protein degradation in human MCF7 cells assessed as decrease in Bcl-2 expression at 0.1 to 0.2 uM pretreated with proteasome inhibitor, MG132 for 2 hrs followed by incubation with compound for 48 hrs by western blot analysis; type: cell-based; conditions: dose 0.1-0.2 µM
MDA-MB-231 [8] = experiment: Cytotoxicity against human MDA-MB-231 cells at 0.1 to 1.6 uM measured after 48 hrs in presence of 20 uM autophagy inhibitor, chloroquine by CCK8 assay; type: functional, cell-based; conditions: dose 0.1-1.6 µM
BT-549 [9] = experiment: Cytotoxicity against human BT-549 cells at 0.1 to 1.6 uM measured after 48 hrs in presence of 2 mM autophagy inhibitor, 3-methyladenine by CCK8 assay; type: functional, cell-based; conditions: dose 0.1-1.6 µM
[10] = target: T1, Apoptosis regulator Bcl-2; experiment: Induction of Bcl-2 phosphorylation-mediated protein degradation in human MDA-MB-231 cells assessed as decrease in Bcl-2 expression at 0.1 uM by western blot analysis; type: cell-based; conditions: time 12-48 hrs, TDE = time-dependent effect
BT-549 [11] = experiment: Induction of apoptosis in human BT-549 cells transfected with Beclin1 siRNA assessed as increase in cleaved PARP level measured after 48 hrs by western blot analysis; type: functional, cell-based
[12] = target: T1, Apoptosis regulator Bcl-2; experiment: Induction of Bcl-2 phosphorylation-mediated protein degradation in human BT549 cells assessed as decrease in Bcl-2 expression measured after 48 hrs by western blot analysis; type: cell-based; conditions: BT-549, dose 0.05-0.4 µM
MCF7 = experiment: Cytotoxicity against human MCF-7 cells at 0.1 to 1.6 uM measured after 48 hrs in presence of 20 uM autophagy inhibitor, chloroquine by CCK8 assay; type: functional, cell-based; conditions: dose 0.1-1.6 µM
[13] = target: T1, Apoptosis regulator Bcl-2; experiment: Induction of Bcl-2 phosphorylation-mediated protein degradation in human HepG2 cells assessed as decrease in Bcl-2 expression at 0.4 to 6.4 uM measured after 48 hrs by western blot analysis; type: cell-based; conditions: dose 0.4-6.4 µM
MDA-MB-231 [14] = experiment: Cytotoxicity against human MDA-MB-231 cells transfected with Beclin1 siRNA at 0.1 to 1.6 uM measured after 48 hrs by CCK8 assay; type: functional, cell-based; conditions: dose 0.1-1.6 µM
[15] = target: T1, Apoptosis regulator Bcl-2; experiment: Induction of Bcl-2 phosphorylation-mediated protein degradation in human MDA-MB-231 cells assessed as decrease in Bcl-2 expression at 0.1 to 0.2 uM pretreated with proteasome inhibitor, MG132 for 2 hrs followed by incubation with compound for 48 hrs by western blot analysis; type: cell-based; conditions: dose 0.1-0.2 µM
[16] = target: T1, Apoptosis regulator Bcl-2; experiment: Upregulation of Bcl-2 phosphorylation at Ser70 residue in human MDA-MB-231 cells at 0.1 microM incubated for 12 to 36 hrs by western blot analysis; type: cell-based; conditions: time 12-36 hrs
[17] = target: T1, Apoptosis regulator Bcl-2; experiment: Upregulation of Bcl-2 phosphorylation at Ser70 residue in human MCF7 cells at 0.1 microM incubated for 12 to 36 hrs by western blot analysis; type: cell-based; conditions: time 12-36 hrs
BT-549 [18] = experiment: Induction of apoptosis in human BT-549 cells assessed as late apoptotic cells incubated for 48 hrs by AnnexinV-FITC and propidium iodide staining based flow cytometry analysis(reference value: 0.599%); type: functional
[19] = target: T1, Apoptosis regulator Bcl-2; experiment: Binding affinity to human recombinant Bcl-2 expressed in Escherichia coli by Surface plasmon resonance assay
MDA-MB-231 [20] = experiment: Induction of apoptosis in human MDA-MB-231 cells assessed as increase in cleaved caspase 3 level pretreated with 20 uM autophagy inhibitor, CQ for 1 hr followed by incubation with drug for 48 hrs by western blot analysis; type: functional, cell-based
BT-549 [21] = experiment: Induction of apoptosis in human BT-549 cells assessed as increase in cleaved caspase 3 level pretreated with 20 uM autophagy inhibitor, CQ for 1 hr followed by incubation with drug for 48 hrs by western blot analysis; type: functional, cell-based
MDA-MB-231 [22] = experiment: Induction of autophagy in human MDA-MB-231 cells transfected with Beclin1 siRNA assessed as LC3-II level at 0.1 uM by western blot analysis; type: functional, cell-based
MDA-MB-231 [23] = experiment: Cytotoxicity against human MDA-MB-231 cells at 0.1 to 1.6 uM measured after 48 hrs in presence of 2 mM autophagy inhibitor, 3-methyladenine by CCK8 assay; type: functional, cell-based; conditions: dose 0.1-1.6 µM
MDA-MB-231 [24] = experiment: Induction of autophagy in human MDA-MB-231 cells assessed as increase in LC3-II level measured after 48 hrs by Western blot analysis; type: functional, cell-based; conditions: dose 0.05-0.4 µM
MDA-MB-231 [25] = experiment: Antitumor activity against human MDA-MB-231 cells xenografted in BALB/c mouse assessed as tumor growth inhibition at 3 mg/kg, ip administered every other day measured every 3 days by vernier caliper analysis; type: functional, organism-based
[26] = target: T1, Apoptosis regulator Bcl-2; experiment: Induction of Bcl-2 phosphorylation-mediated protein degradation in human U251 cells assessed as decrease in Bcl-2 expression at 0.4 to 6.4 uM measured after 48 hrs by western blot analysis; type: cell-based; conditions: U-251, dose 0.4-6.4 µM
[27] = target: T1, Apoptosis regulator Bcl-2; experiment: Induction of Bcl-2 phosphorylation-mediated protein degradation in human MCF7 cells assessed as decrease in Bcl-2 expression at 0.1 uM by western blot analysis; type: cell-based; conditions: time 12-48 hrs, TDE = time-dependent effect
BT-549 [28] = experiment: Induction of apoptosis in human BT-549 cells assessed as viable cells incubated for 48 hrs by AnnexinV-FITC and propidium iodide staining based flow cytometry analysis(reference value: 98.6%); type: functional
BT-549 [29] = experiment: Induction of apoptosis in human BT-549 cells assessed as necrotic cells incubated for 48 hrs by AnnexinV-FITC and propidium iodide staining based flow cytometry analysis(reference value: 0.145%); type: functional

T1 sequence (P10415 whole entry): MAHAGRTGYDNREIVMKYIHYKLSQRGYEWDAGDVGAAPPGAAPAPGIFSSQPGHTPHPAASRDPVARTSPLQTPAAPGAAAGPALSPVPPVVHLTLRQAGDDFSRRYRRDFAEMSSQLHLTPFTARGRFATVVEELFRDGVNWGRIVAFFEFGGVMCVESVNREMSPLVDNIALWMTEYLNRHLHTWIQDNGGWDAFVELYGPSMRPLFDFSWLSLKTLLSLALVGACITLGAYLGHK

C/C(=C\c1csc(C)n1)[C@@H]1C[C@@H]2O[C@]2(C)CCC[C@H](C)[C@H](O)[C@@H](C)C(=O)C(C)(C)[C@@H](O)CC(=O)N1 [IXABEPILONE]
337 nM: Kd [19]
86.3%: Activity (BT-549 [28])
74.3%: Activity (BT-549 [2])
inactive: Activity [7] | Activity [15] | Activity (MDA-MB-231 [22])
18%: Activity (BT-549 [5])
1.47%: Activity (BT-549 [29])
10%: Activity (BT-549 [18])
active: Activity (HepG2) | Activity [1] | Activity (MDA-MB-231 [3]) Tde | Activity (BT-549 [4]) | Activity (U-251) | Activity (BT-549 [6]) | Activity (MDA-MB-231 [8]) | Activity (BT-549 [9]) | Activity [10] Tde | Activity (BT-549 [11]) | Activity [12] Dose-dependent effect | Activity (MCF7) | Activity [13] | Activity (MDA-MB-231 [14]) | Activity [16] | Activity [17] | Activity (MDA-MB-231 [20]) | Activity (BT-549 [21]) | Activity (MDA-MB-231 [23]) | Activity (MDA-MB-231 [24]) Dose-dependent effect | Activity (MDA-MB-231 [25]) | Activity [26] | Activity [27] Tde
